One compound from BindingDB's records for doi:10.1128/aac.00737-07 (Duke University Medical Center, 2008) can be followed below.

Each structure is given as a SMILES string.

A short description of assay [1]: Inhibition of HIV1 (isolate YU2) envelope glycoprotein 120-mediated membrane fusion between virus-transfected african green monkey COS cells and human TZM-bl cells by luciferase-based cell-cell fusion assay in absence of IC9564.
Assay [2] is described as follows: Inhibition of HIV1 (isolate YU2) envelope glycoprotein 120-mediated membrane fusion between virus-transfected african green monkey COS cells and human TZM-bl cells by luciferase-based cell-cell fusion assay in presence of IC9564.

In general, IC50 refers to the concentration that gives 50% inhibition. On to `COc1ccnc2[nH]cc(C(=O)C(=O)N3CCN(C(=O)c4ccccc4)C[C@H]3C)c12` [(R)-1-(4-benzoyl-2-methylpiperazin-1-yl)-2-(4-methoxy-1H-pyrrolo[2,3-b]pyridin-3-yl)ethane-1,2-dione], for which the results for the IC50 in assay [1] and in assay [2] were 0.137 µM and 0.0344 µM, respectively.
